Results: ChEMBL document CHEMBL5321198, “Identification, in-vitro anti-plasmodial assessment and docking studies of series of tetrahydrobenzothieno[2,3-d]pyrimidine-acetamide molecular hybrids as potential antimalarial agents” (Eur J Med Chem, 2023)

Key:
Plasmodium falciparum [1] = assay: Antimalarial activity against chloroquine resistant Plasmodium falciparum W2 infected in human erythrocytes assessed as inhibition of parasite growth incubated for 48 hrs by YOYO-1 dye based flow cytometric analysis; assay type: functional, organism-based; settings: W2, 48 h
Plasmodium falciparum [2] = assay: Antimalarial activity against chloroquine sensitive Plasmodium falciparum 3D7 infected in human erythrocytes assessed as inhibition of parasite growth incubated for 48 hrs by YOYO-1 dye based flow cytometric analysis; assay type: functional, organism-based; settings: 3D7, 48 h
Plasmodium falciparum [3] = assay: Resistance index, ratio of IC50 for antimalarial activity against chloroquine resistant Plasmodium falciparum W2 infected in human erythrocytes to IC50 for antimalarial activity against chloroquine sensitive Plasmodium falciparum 3D7 infected in human erythrocytes; assay type: functional
MDA-MB-231 = assay: Cytotoxicity against human MDA-MB-231 cells incubated for 24 hrs by MTT assay; assay type: functional, cell-based; settings: MDA-MB-231, 24 h
A549 = assay: Cytotoxicity against human A549 cells incubated for 24 hrs by MTT assay; assay type: functional, cell-based; settings: A549, 24 h
[4] = Cytotoxicity against human HPL1D cells incubated for 24 hrs by MTT assay; assay type: toxicity, cell-based
[5] = Selectivity index, ratio of IC50 for cytotoxicity against human HPL1D cells to IC50 for antimalarial activity against chloroquine resistant Plasmodium falciparum W2 infected in human erythrocytes; assay type: toxicity, cell-based; settings: read-out: Ratio IC50
[6] = Selectivity index, ratio of IC50 for cytotoxicity against human A549 cells to IC50 for antimalarial activity against chloroquine resistant Plasmodium falciparum W2 infected in human erythrocytes; assay type: functional
[7] = Selectivity index, ratio of IC50 for cytotoxicity against human MDA-MB-231 cells to IC50 for antimalarial activity against chloroquine resistant Plasmodium falciparum W2 infected in human erythrocytes; assay type: functional
Erythrocyte [8] = assay: Cytotoxicity against human erythrocyte at 3 to 100 uM incubated for 3 hrs by microplate reader assay; assay type: toxicity, cell-based; settings: dose 3-100 µM
Erythrocyte [9] = assay: Hemolytic activity in human erythrocyte assessed as hemolysis at 25 uM incubated for 3 hrs by microplate reader assay; assay type: toxicity, cell-based

In the case of COc1ccc(NC(=O)C(c2ccc(F)c(F)c2)N2CCN(c3ncnc4sc5c(c34)CCCC5)CC2)cc1 (centres undefined), the IC50 (Plasmodium falciparum [1]) is reported as 133 nM, the IC50 (Plasmodium falciparum [2]) is reported as 728 nM and the “Ratio IC50” value (Plasmodium falciparum [3]) is reported as 0.183. For the same compound, the IC50 (MDA-MB-231) was 310 nM, the IC50 (A549) was 750 nM and the IC50 at 24 h [4] was 27200 nM. The selectivity ratio [5] was 205, the “Ratio IC50” value [6] was 5.64 and the “Ratio IC50” value [7] was 2.33. For the same compound, the Activity (Erythrocyte [8]) was “Non-Toxic” and the Activity (Erythrocyte [9]) was “Toxic”.

COc1cccc2c1C(=O)c1c(O)c3c(c(O)c1C2=O)C[C@@](O)(C(=O)CO)C[C@@H]3O[C@H]1C[C@H](N)[C@H](O)[C@H](C)O1 [DOXORUBICIN] showed an IC50 (MDA-MB-231) of 5800 nM.

For COc1ccc(NC(=O)C(c2ccc(C)cc2)N2CCN(c3ncnc4sc5c(c34)CCCC5)CC2)cc1 (centres undefined), the IC50 (Plasmodium falciparum [1]) was 268 nM, the IC50 (Plasmodium falciparum [2]) was 692 nM and the “Ratio IC50” value (Plasmodium falciparum [3]) was 0.387. For the same compound, the Activity (Erythrocyte [8]) was “Non-Toxic” and the Activity (Erythrocyte [9]) was “Toxic”.

For O=C(O)C(c1ccc(F)c(F)c1)N1CCN(c2ncnc3sc4c(c23)CCCC4)CC1 (centres undefined), the IC50 (Plasmodium falciparum [1]) was > 10000 nM.

For O=C(O)C(c1ccc(Cl)c(Cl)c1)N1CCN(c2ncnc3sc4c(c23)CCCC4)CC1 (centres undefined), the IC50 (Plasmodium falciparum [1]) was > 10000 nM.

For COc1ccc(NC(=O)C(c2ccc(F)cc2)N2CCN(c3ncnc4sc5c(c34)CCCC5)CC2)cc1 (centres undefined), the IC50 (Plasmodium falciparum [1]) was 171 nM, the IC50 (Plasmodium falciparum [2]) was 1220 nM and the “Ratio IC50” value (Plasmodium falciparum [3]) was 0.173. For the same compound, the Activity (Erythrocyte [8]) was “Non-Toxic” and the Activity (Erythrocyte [9]) was “Toxic”.

Work on O=C(O)C(c1ccc(C(F)(F)F)cc1)N1CCN(c2ncnc3sc4c(c23)CCCC4)CC1 (centres undefined) yielded an IC50 (Plasmodium falciparum [1]) of 6630 nM.

In the case of COc1ccc(NC(=O)C(c2ccc(OC)cc2)N2CCN(c3ncnc4sc5c(c34)CCCC5)CC2)cc1 (centres undefined), the IC50 (Plasmodium falciparum [1]) is reported as 187 nM, the IC50 (Plasmodium falciparum [2]) is reported as 698 nM and the “Ratio IC50” value (Plasmodium falciparum [3]) is reported as 0.268. The Activity (Erythrocyte [8]) was “Non-Toxic” and the Activity (Erythrocyte [9]) was “Toxic”.

With COc1ccc(NC(=O)C(c2ccc(F)c(Cl)c2)N2CCN(c3ncnc4sc5c(c34)CCCC5)CC2)cc1 (centres undefined) the IC50 (Plasmodium falciparum [1]) was 125 nM, the IC50 (Plasmodium falciparum [2]) was 1080 nM and the “Ratio IC50” value (Plasmodium falciparum [3]) was 0.116. It also gave an IC50 (MDA-MB-231) of 520 nM, an IC50 (A549) of 430 nM and an IC50 at 24 h [4] of 36100 nM. The selectivity ratio [5] was 288, the “Ratio IC50” value [6] was 3.43 and the “Ratio IC50” value [7] was 4.15. For the same compound, the Activity (Erythrocyte [8]) was “Non-Toxic” and the Activity (Erythrocyte [9]) was “Toxic”.

For O=C(O)C(c1ccc(F)c(Cl)c1)N1CCN(c2ncnc3sc4c(c23)CCCC4)CC1 (centres undefined), the IC50 (Plasmodium falciparum [1]) was > 10000 nM.

Work on Cc1ccc(C(C(=O)O)N2CCN(c3ncnc4sc5c(c34)CCCC5)CC2)cc1 (centres undefined) yielded an IC50 (Plasmodium falciparum [1]) of 8520 nM.

For COc1ccc(NC(=O)C(c2ccc(Cl)c(Cl)c2)N2CCN(c3ncnc4sc5c(c34)CCCC5)CC2)cc1 (centres undefined), the IC50 (Plasmodium falciparum [1]) was 68 nM, the IC50 (Plasmodium falciparum [2]) was 933 nM and the “Ratio IC50” value (Plasmodium falciparum [3]) was 0.073. The IC50 (MDA-MB-231) was 740 nM, the IC50 (A549) was 810 nM and the IC50 at 24 h [4] was 31300 nM. The selectivity ratio [5] was 460, the “Ratio IC50” value [6] was 11.91 and the “Ratio IC50” value [7] was 10.88. For the same compound, the Activity (Erythrocyte [8]) was “Non-Toxic” and the Activity (Erythrocyte [9]) was “Toxic”.

For O=C(O)C(c1ccc(F)cc1)N1CCN(c2ncnc3sc4c(c23)CCCC4)CC1 (centres undefined), the IC50 (Plasmodium falciparum [1]) was > 10000 nM.

In the case of COc1ccc(NC(=O)C(c2ccc(C(F)(F)F)cc2)N2CCN(c3ncnc4sc5c(c34)CCCC5)CC2)cc1 (centres undefined), the IC50 (Plasmodium falciparum [1]) is reported as 56 nM, the IC50 (Plasmodium falciparum [2]) is reported as 837 nM and the “Ratio IC50” value (Plasmodium falciparum [3]) is reported as 0.067. For the same compound, the IC50 (MDA-MB-231) was 110 nM, the IC50 (A549) was 80 nM and the IC50 at 24 h [4] was 39900 nM. For the same compound, the selectivity ratio [5] was 716, the “Ratio IC50” value [6] was 1.43 and the “Ratio IC50” value [7] was 1.97. The Activity (Erythrocyte [8]) was “Non-Toxic” and the Activity (Erythrocyte [9]) was “Toxic”.

With O=C(O)C(c1ccc(OC(F)(F)F)cc1)N1CCN(c2ncnc3sc4c(c23)CCCC4)CC1 (centres undefined) the IC50 (Plasmodium falciparum [1]) was > 10000 nM.

For COc1ccc(C(C(=O)O)N2CCN(c3ncnc4sc5c(c34)CCCC5)CC2)cc1 (centres undefined), the IC50 (Plasmodium falciparum [1]) was > 10000 nM.

In the case of COc1ccc(NC(=O)C(c2ccc(OC(F)(F)F)cc2)N2CCN(c3ncnc4sc5c(c34)CCCC5)CC2)cc1 (centres undefined), the IC50 (Plasmodium falciparum [1]) is reported as 61 nM, the IC50 (Plasmodium falciparum [2]) is reported as 888 nM and the “Ratio IC50” value (Plasmodium falciparum [3]) is reported as 0.068. For the same compound, the IC50 (MDA-MB-231) was 460 nM, the IC50 (A549) was 370 nM and the IC50 at 24 h [4] was 28700 nM. For the same compound, the selectivity ratio [5] was 472, the “Ratio IC50” value [6] was 6.08 and the “Ratio IC50” value [7] was 7.56. For the same compound, the Activity (Erythrocyte [8]) was “Non-Toxic” and the Activity (Erythrocyte [9]) was “Toxic”.
